Assay results as given in ChEMBL document CHEMBL1201862, “PubChem BioAssay data set” (2004).
Activity calls are given as the source filed them.

How the values were obtained:
HEK293 [1] = test: HEK cell cytotoxicity by LDH release, dose response, cytotoxicity control for IDE activator project, fluorescence, HEK cells (AID 588440); format: functional, cell-based; conditions: Homo sapiens;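 further: cytotoxicity by LDH release measuring loss of membrane integrity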
[2] = target: T1, DNA repair protein RAD52 homolog (Homo sapiens, UniProt P43351); format: functional, biochemical
T1 sequence (P43351 whole entry): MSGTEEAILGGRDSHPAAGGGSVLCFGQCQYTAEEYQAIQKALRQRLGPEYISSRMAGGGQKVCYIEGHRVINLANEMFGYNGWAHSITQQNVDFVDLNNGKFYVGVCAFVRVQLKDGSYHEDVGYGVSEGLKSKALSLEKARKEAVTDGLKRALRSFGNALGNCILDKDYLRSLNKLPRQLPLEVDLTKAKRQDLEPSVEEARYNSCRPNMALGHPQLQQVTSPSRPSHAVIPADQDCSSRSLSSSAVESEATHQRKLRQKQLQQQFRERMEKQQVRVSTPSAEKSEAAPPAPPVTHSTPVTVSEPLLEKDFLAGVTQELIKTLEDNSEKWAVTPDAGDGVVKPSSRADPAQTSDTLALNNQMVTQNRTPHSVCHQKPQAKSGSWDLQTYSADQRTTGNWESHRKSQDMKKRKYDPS

[3] = HEK293T cytotoxicity, dose response, cytotoxicity control for miR-122 modulator project, cell-based, activator set, cherry-pick (AID 720690); format: functional;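 further: HEK293T human cells scored for general mammalian cytotoxicity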
Insulin-degrading enzyme [4] = target: T2, Insulin-degrading enzyme (Homo sapiens, UniProt P14735); test: activators of recombinant IDE enzyme, dose response, counter-screen for IDE activator project, biochemical, fluorescence polarization (AID 588681)
T2 sequence (P14735 whole entry): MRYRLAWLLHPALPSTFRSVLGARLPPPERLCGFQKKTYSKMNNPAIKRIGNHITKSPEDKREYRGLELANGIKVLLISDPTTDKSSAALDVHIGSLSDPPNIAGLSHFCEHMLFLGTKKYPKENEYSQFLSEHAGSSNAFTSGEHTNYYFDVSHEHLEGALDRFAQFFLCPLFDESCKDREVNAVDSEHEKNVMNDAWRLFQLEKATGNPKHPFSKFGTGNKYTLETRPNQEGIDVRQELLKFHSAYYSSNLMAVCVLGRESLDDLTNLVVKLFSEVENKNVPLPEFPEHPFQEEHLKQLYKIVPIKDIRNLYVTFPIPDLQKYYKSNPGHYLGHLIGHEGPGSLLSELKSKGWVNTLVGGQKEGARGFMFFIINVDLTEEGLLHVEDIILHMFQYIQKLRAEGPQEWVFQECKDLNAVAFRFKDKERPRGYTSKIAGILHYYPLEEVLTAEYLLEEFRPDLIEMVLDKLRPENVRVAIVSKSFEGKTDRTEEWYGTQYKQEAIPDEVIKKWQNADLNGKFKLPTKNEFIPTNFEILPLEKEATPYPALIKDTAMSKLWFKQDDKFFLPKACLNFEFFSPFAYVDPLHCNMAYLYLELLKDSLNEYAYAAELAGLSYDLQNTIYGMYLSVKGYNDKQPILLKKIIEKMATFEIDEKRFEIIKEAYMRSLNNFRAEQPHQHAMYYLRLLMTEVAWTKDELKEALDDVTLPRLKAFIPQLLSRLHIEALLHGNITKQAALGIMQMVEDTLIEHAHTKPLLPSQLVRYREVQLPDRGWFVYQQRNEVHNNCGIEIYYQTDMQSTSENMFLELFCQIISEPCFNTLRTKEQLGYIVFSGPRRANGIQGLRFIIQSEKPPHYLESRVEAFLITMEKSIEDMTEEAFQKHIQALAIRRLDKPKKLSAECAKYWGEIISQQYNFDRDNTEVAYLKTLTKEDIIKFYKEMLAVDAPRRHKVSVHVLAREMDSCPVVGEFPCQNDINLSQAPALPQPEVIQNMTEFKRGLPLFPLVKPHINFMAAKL

[5] = microbe, parasite or virus in culture; format: functional; conditions: Mycobacterium tuberculosis
Bcl-2-related protein A1 = target: T3, Bcl-2-related protein A1 (Mus musculus, UniProt Q07440); format: functional;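 further: confirmatory dose–response counterscreen on Bfl-1, used to check hits from a UBC13 polyubiquitin inhibitor campaign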
T3 sequence (Q07440 whole entry): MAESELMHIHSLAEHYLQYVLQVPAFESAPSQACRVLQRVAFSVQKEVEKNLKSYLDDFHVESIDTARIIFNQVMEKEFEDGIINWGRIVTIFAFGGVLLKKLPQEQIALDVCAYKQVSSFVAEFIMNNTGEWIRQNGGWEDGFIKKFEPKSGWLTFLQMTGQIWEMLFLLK

Insulin-degrading enzyme [6] = target: T2, Insulin-degrading enzyme; test: activators of endogenous IDE in HEK cells, dose response, cell-based, fluorescence polarization (AID 588439); format: functional
[7] = THP-1 cell cytotoxicity, dose response, cytotoxicity control for Vif-APOBEC3G degradation inhibitor project, THP-1 cells (AID 1117359); format: functional; conditions: Human immunodeficiency virus 1, THP-1
[8] = target: T4, Ubiquitin-conjugating enzyme E2 N (Homo sapiens, UniProt P61088); format: functional
T4 sequence (P61088 whole entry): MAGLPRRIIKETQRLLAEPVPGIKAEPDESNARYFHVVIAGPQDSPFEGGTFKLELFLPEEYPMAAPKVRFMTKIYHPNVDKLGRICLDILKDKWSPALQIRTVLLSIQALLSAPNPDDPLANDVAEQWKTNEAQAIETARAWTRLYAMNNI

[9] = miR-122 activators in hepatoma reporter cells, dose response, cell-based, Huh7 psiCHECK-miR122, Renilla luciferase, cherry-picked (AID 651956); format: functional;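 further: huh7 hepatoma cells stably carrying a psiCHECK-2 miR-122 sensor plasmid; renilla luciferase signal reporting endogenous miR-122 activity after 48 h compound exposure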
[10] = target: T4, Ubiquitin-conjugating enzyme E2 N; format: functional; remark: listed apart in the source
HEK293 [11] = test: optical interference in Abeta FP readout, dose response, artefact control for IDE activator project, biochemical, fluorescence polarization (AID 588442); format: functional, cell-based; conditions: Homo sapiens
Coagulation factor XII = target: T5, Coagulation factor XII (Homo sapiens, UniProt P00748); format: functional;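 further: activated factor XIIa alpha cleaving a fluorogenic AMC peptide substrate; inhibitor potency from loss of enzyme activity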
T5 sequence (P00748 whole entry): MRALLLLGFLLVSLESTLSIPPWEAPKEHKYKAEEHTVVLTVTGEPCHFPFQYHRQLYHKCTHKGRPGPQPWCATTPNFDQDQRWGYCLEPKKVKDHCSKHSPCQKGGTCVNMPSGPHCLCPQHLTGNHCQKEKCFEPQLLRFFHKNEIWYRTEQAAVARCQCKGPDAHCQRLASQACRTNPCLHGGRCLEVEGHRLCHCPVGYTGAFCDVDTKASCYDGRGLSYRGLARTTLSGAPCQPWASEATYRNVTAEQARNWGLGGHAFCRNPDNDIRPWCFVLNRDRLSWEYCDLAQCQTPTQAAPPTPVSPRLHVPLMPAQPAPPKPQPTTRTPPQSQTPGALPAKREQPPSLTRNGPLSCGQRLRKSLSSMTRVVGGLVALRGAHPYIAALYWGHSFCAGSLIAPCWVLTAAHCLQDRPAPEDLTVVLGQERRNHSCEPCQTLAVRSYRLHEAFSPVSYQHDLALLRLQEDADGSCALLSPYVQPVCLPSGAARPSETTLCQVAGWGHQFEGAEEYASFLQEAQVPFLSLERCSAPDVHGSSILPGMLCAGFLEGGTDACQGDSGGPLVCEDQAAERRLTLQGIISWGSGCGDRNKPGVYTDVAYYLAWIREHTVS

[12] = target: DNA dC->dU-editing enzyme APOBEC-3A (Homo sapiens, UniProt P31941); test: SAR analysis of small molecule inhibitors of APOBEC3A DNA Deaminase via a fluorescence-based single-stranded DNA deaminase assay.; format: functional; conditions: read-out: IC50_Mean
[13] = target: DNA dC->dU-editing enzyme APOBEC-3G (Homo sapiens, UniProt Q9HC16); test: APOBEC3G deaminase inhibitors, SAR follow-up, biochemical, fluorescence, single-stranded DNA substrate (AID 602136); format: functional; conditions: read-out: IC50_Mean
[14] = NIH-3T3 fibroblast cytotoxicity, dose response, cytotoxicity control, cell-based, fluorescence, Alamar Blue, secondary assay (AID 2327); format: functional;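 further: NIH-3T3 mouse fibroblasts cultured with fluconazole at 8 µg/mL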
INS1 = test: beta cell apoptosis inhibitors, cytokine rescue, dose response, luminescence, retest (AID 449756); format: functional, cell-based; conditions: Rattus norvegicus;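 further: cell death triggered by IL-1 beta plus TNF-alpha plus IFN-gamma mixture; protective hits raise ATP signal compared with cytokine alone wells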
Jurkat = test: antigen receptor-induced NF-kB inhibitors, dose response, Jurkat, luciferase reporter, luminescence, B- and T-cell (AID 489004); format: functional, cell-based; conditions: Homo sapiens;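 further: NF-kB luciferase reporter Jurkat cells stimulated with PMA plus ionomycin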
[15] = C. albicans growth with fluconazole, confirmation, fluorescence, retest (AID 2467); format: functional, cell-based
[16] = cytotoxicity in HEK-293T NF-kB-Luc cells, dose response, cytotoxicity control for B/T-cell NF-kB inhibitor project, cell-based, uHTS hits (AID 489019); format: functional;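 further: IC50 reflects cytotoxicity as loss of cell viability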
[17] = target: T6, Apoptotic protease-activating factor 1 (Homo sapiens, UniProt O14727); format: functional
T6 sequence (O14727 whole entry): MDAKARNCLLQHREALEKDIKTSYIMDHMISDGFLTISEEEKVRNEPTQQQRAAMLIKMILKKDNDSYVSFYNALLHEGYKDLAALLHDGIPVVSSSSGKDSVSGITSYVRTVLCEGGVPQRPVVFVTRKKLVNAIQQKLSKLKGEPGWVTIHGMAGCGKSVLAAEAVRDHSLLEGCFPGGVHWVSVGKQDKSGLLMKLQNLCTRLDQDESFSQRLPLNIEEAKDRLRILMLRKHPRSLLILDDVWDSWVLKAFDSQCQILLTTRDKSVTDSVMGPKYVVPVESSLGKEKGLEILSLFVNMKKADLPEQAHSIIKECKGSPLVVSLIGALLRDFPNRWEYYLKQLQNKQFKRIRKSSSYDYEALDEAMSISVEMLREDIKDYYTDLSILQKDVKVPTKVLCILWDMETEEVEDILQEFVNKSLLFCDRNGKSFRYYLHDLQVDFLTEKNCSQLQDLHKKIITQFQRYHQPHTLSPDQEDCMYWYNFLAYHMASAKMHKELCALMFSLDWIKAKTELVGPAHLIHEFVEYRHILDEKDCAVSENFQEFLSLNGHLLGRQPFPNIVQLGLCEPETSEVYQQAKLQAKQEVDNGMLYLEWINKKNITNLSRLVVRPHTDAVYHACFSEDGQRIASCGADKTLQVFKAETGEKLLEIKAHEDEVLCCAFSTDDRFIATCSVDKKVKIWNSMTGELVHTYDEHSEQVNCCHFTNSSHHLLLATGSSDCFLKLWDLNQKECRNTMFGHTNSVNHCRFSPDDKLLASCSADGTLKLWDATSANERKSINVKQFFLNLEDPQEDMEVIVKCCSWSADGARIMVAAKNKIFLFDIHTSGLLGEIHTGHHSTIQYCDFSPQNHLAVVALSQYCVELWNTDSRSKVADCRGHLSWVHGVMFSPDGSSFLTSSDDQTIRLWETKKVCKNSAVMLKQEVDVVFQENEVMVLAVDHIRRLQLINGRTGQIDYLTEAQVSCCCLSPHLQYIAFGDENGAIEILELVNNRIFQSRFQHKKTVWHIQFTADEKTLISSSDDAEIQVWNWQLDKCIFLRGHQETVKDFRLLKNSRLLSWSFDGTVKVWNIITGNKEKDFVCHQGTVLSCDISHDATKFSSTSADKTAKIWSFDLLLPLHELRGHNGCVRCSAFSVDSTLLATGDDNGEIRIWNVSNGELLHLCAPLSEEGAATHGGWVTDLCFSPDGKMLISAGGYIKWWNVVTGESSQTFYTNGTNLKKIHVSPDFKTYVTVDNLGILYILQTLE

[18] = Luminescence Cell-Based Dose Retest to Confirm Inhibitors of Cancer Stem Cells. [Related pubchem assays (depositor defined):AID2717, AID2721]; format: functional; conditions: Homo sapiens
[19] = target: Luciferin 4-monooxygenase (Photinus pyralis, UniProt P08659); test: firefly luciferase enzyme inhibitors, dose response, biochemical, luminescence (AID 1891)
[20] = Luminescence Cell-Based Dose Confirmation HTS to Identify Inhibitors of Platelet Dense Granule Release. [Related pubchem assays: 1663 (Primary HTS), 1678 (Summary of Project)]; format: functional
[21] = A Cell Based Secondary Assay To Explore Cytotoxicity of Compounds that Sensitize Mycobacterium Tuberculosis to Beta-Lactam Antibiotics.; format: functional

DNA dC->dU-editing enzyme APOBEC-3G, sequence (Q9HC16 whole entry): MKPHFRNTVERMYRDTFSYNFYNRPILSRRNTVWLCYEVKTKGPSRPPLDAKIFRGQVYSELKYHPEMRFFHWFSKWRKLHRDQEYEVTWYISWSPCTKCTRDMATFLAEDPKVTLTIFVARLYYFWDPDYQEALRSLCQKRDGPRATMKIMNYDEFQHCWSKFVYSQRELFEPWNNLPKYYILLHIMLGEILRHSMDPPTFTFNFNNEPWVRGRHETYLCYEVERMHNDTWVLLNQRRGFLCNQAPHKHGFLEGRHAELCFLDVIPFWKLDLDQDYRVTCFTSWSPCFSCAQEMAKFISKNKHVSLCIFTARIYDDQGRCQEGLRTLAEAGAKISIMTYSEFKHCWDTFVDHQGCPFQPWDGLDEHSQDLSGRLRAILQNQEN
DNA dC->dU-editing enzyme APOBEC-3A, sequence (P31941 whole entry): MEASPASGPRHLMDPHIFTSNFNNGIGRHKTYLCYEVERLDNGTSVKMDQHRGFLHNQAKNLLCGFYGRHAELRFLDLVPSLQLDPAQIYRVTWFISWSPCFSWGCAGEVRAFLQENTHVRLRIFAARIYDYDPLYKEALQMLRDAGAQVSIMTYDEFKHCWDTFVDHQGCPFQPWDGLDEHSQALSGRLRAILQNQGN
Luciferin 4-monooxygenase, sequence (P08659 whole entry): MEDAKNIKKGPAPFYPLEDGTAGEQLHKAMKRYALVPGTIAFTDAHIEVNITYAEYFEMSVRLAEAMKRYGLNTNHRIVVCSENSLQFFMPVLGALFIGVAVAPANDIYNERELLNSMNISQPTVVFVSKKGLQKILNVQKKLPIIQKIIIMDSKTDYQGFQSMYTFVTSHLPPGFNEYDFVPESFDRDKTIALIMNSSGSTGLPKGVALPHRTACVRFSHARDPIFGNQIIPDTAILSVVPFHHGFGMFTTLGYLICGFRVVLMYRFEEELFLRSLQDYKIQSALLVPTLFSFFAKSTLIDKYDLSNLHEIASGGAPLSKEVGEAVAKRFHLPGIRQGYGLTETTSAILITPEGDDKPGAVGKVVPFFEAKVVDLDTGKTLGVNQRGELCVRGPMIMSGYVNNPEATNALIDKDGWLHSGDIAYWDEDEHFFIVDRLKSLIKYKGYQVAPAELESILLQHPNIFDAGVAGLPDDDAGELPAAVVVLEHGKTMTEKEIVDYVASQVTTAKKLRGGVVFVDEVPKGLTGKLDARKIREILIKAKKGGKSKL

SMILES	IC50 (HEK293 [1])	AC50 [2]	EC50 (Insulin-degrading enzyme [4])	EC50 (Insulin-degrading enzyme [6])	IC50 [8]	EC50 (HEK293 [11])	IC50 [12]	IC50 [13]	IC50 [17]	also measured
CN(C)CCNc1ncnc2c1sc1nc(-c3ccccc3)c3c(c12)CCCC3	10.4 µM (inactive)	6.93 µM (active)	> 54.7 µM (inactive)	21.7 µM (inactive)	13 µM (active)	> 54.7 µM (inactive)	–	–	–	AC50 [3]: 16.2 µM (active); CC50 [5]: 7.38 µM (active); IC50 (Bcl-2-related protein A1): > 20 µM (inactive); CC50 [7]: 31.1 µM (active); AC50 [9]: 19.4 µM (active); IC50 [10]: 7.72 µM (active); IC50 (Coagulation factor XII): > 50 µM (inactive)
CC(=O)Nc1ccc(NC(=O)COC(=O)c2[nH]nc3ccccc23)cc1	> 89.2 µM (inactive)	–	> 54.7 µM (inactive)	> 54.7 µM (inactive)	–	> 54.7 µM (inactive)	–	–	–	–
CC(C)Cn1c(=O)c2cc(Cl)ccc2n2c(SCc3ccc(Cl)cc3)nnc12	–	–	–	–	–	–	> 99 µM (inactive)	> 99 µM (inactive)	–	–
CCCCCc1ccc(OCCCC[n+]2cccc(C)c2)c(CCCCC)c1	–	15.1 µM (active)	–	–	> 20 µM (inactive)	–	–	–	28.5 µM (active)	EC50 [14]: > 150 µM (inactive); AC50 (INS1): 1.64 µM (active); IC50 (Jurkat): 4.68 µM (active); EC50 [15]: 0.755 µM (active); IC50 [16]: 68.8 µM (inactive); AC50 [18]: 0.694 µM (active)
O=C1N/C(=C\c2ccc(O)cc2)C(=O)c2ccccc21	–	–	–	–	–	–	–	–	3.21 µM (active)	EC50 [19]: 0.661 µM (active); EC50 [20]: 1.15 µM (active); CC50 [21]: > 40 µM (active)
Cn1c(SCC(N)=O)nnc1-c1sc2cc(Cl)ccc2c1Cl	–	–	–	–	–	–	> 99 µM (inactive)	> 99 µM (inactive)	–	–
